Assay results as given in patent EP0472392A2, “Optically active triazole derivatives and compositions” (priority 1990, dated 1992).
Values after ≈ are worked out from the molar mass of the structure shown. “Also recorded” adds a separate entry of the source. Where two headings read alike, the source gives them in different places.

How the values were obtained:
[1] = test system: Aspergillus fumigatus IFM 4942; experiment: Measurement of Minimum Inhibitory Concentration (MIC), agar dilution; assay type: cell-based; conditions: SDA agar plates, 30°C
Procedure: (§1) Measurement of Minimum Inhibitory Concentration (MIC)
(§2) Yeast-type fungi were cultured in Sabouraud dextrose broth (SDB, Difco) at 30°C for 24 hours, and 10⁵ cell/ml suspension for inoculation were prepared by diluting this with sterile physiological saline. In the case of filamentous fungi, 3 to 5 ml sterile physiological saline containing 0.05% (w/v) Tween 80 were added to mature Sabouraud dextrose agar culture medium (SDA, Difco) slant cultures (cultured for 2 to 3 weeks) in which conidia had formed abundantly, and the conidia were separated using an inoculating loop (Nunc Inc.). The conidial suspensions obtained were collected using a sterile pipette, and, after filtration through a double layer of sterile gauze to remove mycelial aggregates and agar fragments, were made into suspensions for inoculation by dilution of 10⁵ conidia/ml with sterile physiological saline. Meanwhile, as regards the drug-containing agar plates, a drug concentration of 0.005 to 10 mg/ml was prepared using dimethyl sulfoxide (DMSO, Wako Junyaku), and, by adding 99 parts of SDA to 1 part of this drug solution, two-fold serial dilution agar media of final dilutions 0.05 to 100 µg/ml were prepared. The fungal suspensions for inoculation prepared by the above method were inoculated onto these agar plates using a MIT-P microplanter (Sakuma Seisakusho).

[2] = test system: Candida albicans IFM 40009; experiment: as above; assay type: cell-based; conditions: 30°C, 48 hours
Procedure: as §1, §2

[3] = test system: Candida glabrata TIMM 1064; experiment: as above; assay type: cell-based; conditions: SDA agar plates, 30°C
Procedure: as §1, §2

[4] = test system: Candida tropicalis TIMM 0313; experiment: as above; assay type: cell-based; conditions: SDA agar plates, 30°C
Procedure: as §1, §2

[5] = test system: Cryptococcus neoformans TIMM 0362; experiment: as above; assay type: cell-based; conditions: SDA agar plates, 30°C
Procedure: as §1, §2

[6] = test system: Trichophyton mentagrophytes TIMM 1188; experiment: as above; assay type: cell-based; conditions: SDA agar plates, 30°C
Procedure: as §1, §2

[7] = test system: Aspergillus fumigatus IFM 4942; experiment: Effectiveness in treatment of in vivo infections (survival of infected mice); conditions: IFM4942; Aspergillus fumigatus IFM 4942 i.v. infection, male ICR mice; dosed orally 5x (once daily for 5 days); survival after 2 weeks
Procedure: (§3) Measurement of Effectiveness in Treatment of In vivo Infections Using 10 animals per group, male ICR mice (body weight 18 to 20 g) were infected by intravenous injection of the test fungi as an aqueous suspension. The test compounds were given orally once 1 hour after infection, or once daily for 5 days starting from 1 hour after infection. After 2 weeks, the number of animals surviving was counted, and the dosage at which 50% of the animals survive (ED₅₀: mg/kg) was calculated using the Litchfield-Wilcoxon method.

[8] = test system: Candida albicans IFM 40009; experiment: as above; conditions: IFM40009, Candida albicans IFM 40009 i.v. infection, male ICR mice, survival after 2 weeks
Procedure: as §3

[9] = test system: Cryptococcus neoformans TIMM 0362; experiment: as above; conditions: TIMM0362; Cryptococcus neoformans TIMM 0362 i.v. infection, male ICR mice; dosed orally 1x (1 hour after infection); survival after 2 weeks
Procedure: as §3

[10] = Repeated oral toxicity testing in monkeys; assay type: in vivo; conditions: for safe dosage: under these test conditions
Procedure: Compound A was given orally to monkeys every day for 28 days at dosages of 1, 3, 10 and 30 mg/kg/day, and its toxicity was studied.
As a result, at dosages of 3 mg/kg/day or more, a decrease in serum cortisol, hyperplasia and increase in lipid droplets in the zona fasciculata in the adrenal cortex, and atrophy of the seminiferous tubules of the testes were observed; at the dosage of 30 mg/kg/day, prolongation of the QTc interval in the electrocardiogram (QT period corrected for heart rate) was also observed. Under these test conditions, it was considered that 1 mg/kg/day was a safe dosage.
Compound (+)-I was given orally to monkeys every day for 28 days at dosages of 1, 3, 10 and 30 mg/kg/day, and its toxicity studied.
Under these test conditions, it was considered that 30 mg/kg/day was safe dosage.

[11] = Variation in the plasma concentrations in monkeys of the toxicity study; assay type: in vivo; conditions: repeated daily oral dosing for 28 days
[12] = Aspergillus fumigatus, IFM4942, 48 h, read-out: MIC
[13] = IFM40009, SDA agar plates, read-out: MIC
[14] = Nakaseomyces glabratus, TIMM1064, 48 h, read-out: MIC
[15] = Candida tropicalis, TIMM0313, 48 h, read-out: MIC
[16] = Cryptococcus neoformans, TIMM0362, 48 h, read-out: MIC
[17] = Trichophyton mentagrophytes, TIMM1188, 48 h, read-out: MIC
[18] = dosed orally 5x (once daily for 5 days)
[19] = every day for 28 days, 1, 3, 10 and 30 mg/kg/day
[20] = dosed orally 1x (1 hour after infection)
[21] = every day for 28 days, up to 30 mg/kg/day

SMILES | MIC [1, 12] [µg/mL] | MIC [2, 13] [µg/mL] | MIC [3, 14] [µg/mL] | MIC [4, 15] [µg/mL] | MIC [5, 16] [µg/mL] | MIC [6, 17] [µg/mL] | ED50 [7] [mg/kg] | ED50 [8, 18] [mg/kg] | ED50 [9] [mg/kg] | safe dosage ([10]; every day for 28 days) [mg/kg/day] | variation in the plasma concentrations with time (accumulation) [11] | ED50 [8, 20] [mg/kg] | other results
OC(Cn1cncn1)(Cn1cnc(/C=C/c2ccc(OCC(F)(F)C(F)F)cc2)n1)c1ccc(F)cc1F (racemic) [compound A, (±)-2-(2,4-difluorophenyl)-1-[3-[(E)-4-(2,2,3,3-tetrafluoropropoxy)styryl]-1H-1,2,4-triazol-1-yl]-3-(1H-1,2,4-triazol-1-yl)propan-2-ol] | 12.5 (≈ 23.2 µM) | 12.5 (≈ 23.2 µM) | 1.56 (≈ 2.9 µM) | 12.5 (≈ 23.2 µM) | 0.78 (≈ 1.45 µM) | 0.39 (≈ 0.724 µM) | 53.6 | 1.7 | 43.5 | 1 | accumulates; also recorded: increased day-by day |  | dosage at which a decrease in serum cortisol was observed [10, 19]: ≥ 3 mg/kg/day; dosage at which atrophy of the seminiferous tubules of the testes was observed [10, 19]: ≥ 3 mg/kg/day; dosage at which hyperplasia and increase in lipid droplets in the zona fasciculata in the adrenal cortex was observed ([10]; every day for 28 days, 1, 3, 10 and 30 mg/kg/day, only slight for compound (+)-I): ≥ 3 mg/kg/day
OC(Cn1cncn1)(Cn1cnc(/C=C/c2ccc(OCC(F)(F)C(F)F)cc2)n1)c1ccc(F)cc1F (single isomer, unassigned; (+)) [Compound (+)-I, (+)-2-(2,4-difluorophenyl)-1-[3-[(E)-4-(2,2,3,3-tetrafluoropropoxy)styryl]-1H-1,2,4-triazol-1-yl]-3-(1H-1,2,4-triazol-1-yl)propan-2-ol] |  | 12.5 (≈ 23.2 µM) |  |  |  |  | 39.8 | 1 | 19.7 | 30 | no day-by day increase in the plasma concentrations; also recorded: does not display accumulation | 2.6 | MIC ([1]; 48 hours, listed as COMP. (+)I): 6.25 µg/mL (≈ 11.6 µM); MIC ([3]; 48 hours, listed as COMP. (+)I): 0.78 µg/mL (≈ 1.45 µM); MIC ([4]; 48 hours, listed as COMP. (+)I): 12.5 µg/mL (≈ 23.2 µM); MIC ([5]; 48 hours, listed as COMP. (+)I): 0.39 µg/mL (≈ 0.724 µM); MIC ([6]; 48 hours, listed as COMP. (+)I): 0.10 µg/mL (≈ 0.186 µM); testicular toxicity (atrophy of the seminiferous tubules), finding in words ([10]; even at a dosage of 30 mg/kg/day): did not display; electrocardiogram / cardiotoxicity (prolongation of the QTc interval), finding in words [10, 21]: no abnormalities in the electrocardiogram were seen; also recorded: did not display cardiotoxicity (prolongation of the QTc interval); serum cortisol level (finding in words) [10, 21]: no decrease in the serum cortisol level; also recorded: did not display
OC(Cn1cncn1)(Cn1cnc(/C=C/c2ccc(OCC(F)(F)C(F)F)cc2)n1)c1ccc(F)cc1F (single isomer, unassigned; (-)) [Compound (-)-I, (-)-2-(2,4-difluorophenyl)-1-[3-[(E)-4-(2,2,3,3-tetrafluoropropoxy)styryl]-1H-1,2,4-triazol-1-yl]-3-(1H-1,2,4-triazol-1-yl)propan-2-ol] |  |  |  |  |  |  |  |  |  |  |  |  | MIC ([1]; 48 hours, listed as COMP. (-)I): >100 µg/mL; MIC ([2]; SDA agar plates): 12.5 µg/mL (≈ 23.2 µM); MIC ([3]; 48 hours, listed as COMP. (-)I): >100 µg/mL; MIC ([4]; 48 hours, listed as COMP. (-)I): >100 µg/mL; MIC ([5]; 48 hours, listed as COMP. (-)I): >100 µg/mL; MIC ([6]; 48 hours, listed as COMP. (-)I): 50 µg/mL (≈ 92.9 µM)
OC(Cn1cncn1)(Cn1cncn1)c1ccc(F)cc1F [FLUCONAZOLE, 2-(2,4-difluorophenyl)-1,3-bis(1H-1,2,4-triazol-1-yl)-propan-2-ol] | > 100 | > 100 | 100 (≈ 327 µM) | > 100 | 50 (≈ 163 µM) | 25 (≈ 81.6 µM) | 57.9 | 3.6 | > 100 |  |  | > 30 | 
